Laboratory results reported in patent publication US20260198495A1, “BINARY INSECTICIDE COMPOSITION AND USE THEREOF” (SHENYANG SINOCHEM AGROCHEMICALS R & D CO., LTD., priority 2022, published 2026).

What was measured:
Format in all cases: in vivo
[1] = tested on: adult Bemisia tabaci (Gennadius); assay: Joint toxicity of I-72 + abamectin, seedling spraying, Example 13, Table 13; conditions: Bemisia tabaci; adults, kidney bean seedling spraying, 72 h; A = compound I-72, B = abamectin; read-out: LC50
From the text: Test subject: adult Bemisia tabaci (Gennadius), a sensitive strain reared indoors.
Experimental method: the spraying method was adopted. The kidney bean seedlings cultivated in the greenhouse were selected and evenly sprayed with the pesticide solution in the order from low dosage to high dosage according to the experimental design. After natural air-drying in the shade, a self-made glass cover was put on, and the test insects were introduced, with 20-30 insects for each treatment and 3 replicates. In addition, a blank control was set up. The number of dead and live insects was investigated 72 hours later. The corrected mortality rate was calculated using the Abbott's formula, and the DPS data processing software was used for statistical analysis to calculate the toxicities (LC50 values) of the single test pesticides and the mixtures under the test ratios.
The test conditions, the preparation of the pesticide solution and the evaluation method were the same as those in Example 1.
The test subject, the test method, the test conditions, the preparation of the pesticide solution and the evaluation method were the same as those in Example 12.

[2] = tested on: 3rd-instar larvae of Chilo suppressalis (Walker); assay: Joint toxicity of I-72 + methoxyfenozide, Example 53, Table 53; conditions: A = compound I-72, B = methoxyfenozide, rice stem dipping, 72 hours, read-out: LC50
Protocol: Test target: 3rd-instar larvae of Chilo suppressalis (Walker).
(§1) Preparation of the pesticide solution: according to different test requirements, the test samples were accurately weighed respectively with an electronic analytical balance. The technical pesticides were dissolved in acetone, and then diluted with 0.1% Tween 80 water into a series of pesticide solutions with a certain concentration gradient according to the experimental design dosage.
(§2) Experimental method: first, tender rice stems were selected and dipped in the prepared pesticide solution for 10 s in the order from low dosage to high dosage according to the experimental design. After natural air-drying in the shade, they were placed in a 9-cm-diameter Petri dish with filter paper, and uniform and healthy test insects were introduced, with 10 insects for each treatment and 3 replicates for each treatment. In addition, a blank control was set up.
(§3) The treated test materials were placed in an observation room, and the temperature, humidity and illumination of the observation room could be adjusted as needed. The number of dead and live insects was investigated 72 hours later. […] Then, the co-toxicity coefficient of each ratio was calculated using the Sun Y-P method to evaluate the mixing effect (the same as in Example 1).

[3] = tested on: Bemisia tabaci (Gennadius) nymphs; assay: Joint toxicity of I-72 + pyrifluquinazon, Example 77, Table 77; conditions: Bemisia tabaci; A = compound I-72, B = pyrifluquinazon; cotton leaf-disk spraying; 96 hours; read-out: LC50
Protocol: Test target: Bemisia tabaci (Gennadius) nymphs, a sensitive strain reared indoors.
as §1
Experimental method: first, cotton leaves with neat and consistent Bemisia tabaci (Gennadius) nymphs were selected and made into leaf disks, with about 20 insects on each leaf disk. Then, they were evenly sprayed with the pesticide solution in the order from low dosage to high dosage according to the experimental design, with 1.5 mL for each leaf and 3 replicates for each treatment. In addition, a blank control was set up.
as §3, with “96” for “72”

[4] = tested on: adult Phyllotreta vittuta Fabr.; assay: Joint toxicity of I-72 + deltamethrin, Example 45, Table 45; conditions: A = compound I-72, B = deltamethrin; potted cabbage seedling spraying; 72 hours; read-out: LC50
Protocol: Test target: adult Phyllotreta vittuta Fabr.
as §1
Experimental method: first, uniform and consistent potted cabbage seedlings were selected. Then, uniform spraying was performed with the pesticide solution in the order from low dosage to high dosage according to the experimental design. After air-drying in the shade, adult flea beetles were transferred onto the treated cabbage seedlings, and then glass covers were put on them, with about 30-40 adult flea beetles on each seedling and 3 replicates for each treatment. In addition, a blank control was set up.
as §3

[5] = tested on: 2nd-instar larvae of Plutella xylostella; assay: Synergism screening (Bliss) of I-72 + insect attractants and insecticides, Example 49, Table 49; conditions: Plutella xylostella; single pesticide, 0.1 mg/L; 72 hours; read-out: Measured mortality rate
Protocol: Test target: 2nd-instar larvae of Plutella xylostella.
as §1
as §2, with “cabbage leaves” for “tender rice stems”, “control CK” for “control”
The treated test materials were placed in an observation room, and the temperature, humidity and illumination of the observation room could be adjusted as needed. The number of dead and alive insects was investigated 72 hours later, and the corrected mortality rate was calculated using the Abbott's formula.
The synergism of the mixture was evaluated by adopting the Bliss method, as in Example 5.

[6] = tested on: Nilaparvata lugens (Stal) nymphs; assay: Joint toxicity of I-72 + etofenprox, Example 44, Table 44; conditions: A = compound I-72, B = etofenprox, potted rice seedling spraying, 72 hours, read-out: LC50
Protocol: Test target: Nilaparvata lugens (Stal) nymphs, a sensitive strain reared indoors.
as §1
Experimental method: the activity of the mixture against the Nilaparvata lugens (Stal) nymphs was determined by adopting the potted-seedling spraying method. First, rice seedlings were planted in culture pots. Uniform spraying was performed with the pesticide solution in the order from low dosage to high dosage according to the experimental design, with 2 mL for each seedling. Then, Nilaparvata lugens nymphs of uniform size were transferred onto the rice seedlings, with 3 replicates for each treatment. In addition, a blank control was set up.
as §3

[7] = tested on: 3rd-instar larvae of Ostrinia furnacalis Guenee; assay: Joint toxicity of I-72 + lambda-cyhalothrin, Example 42, Table 42; conditions: A = compound I-72, B = lambda-cyhalothrin, corn stem dipping, 72 hours, read-out: LC50
Protocol: Test target: 3rd-instar larvae of Ostrinia furnacalis Guenee.
as §1
as §2, with “corn” for “rice”
as §3

[8] = tested on: 3rd-instar larvae of Hyphantria cunea; assay: Joint toxicity of I-72 + organophosphorus insecticides, poplar leaf dipping, Example 20, Table 20; conditions: foliar, A = compound I-72, B = triazophos, poplar leaf dipping, 72 hours, read-out: LC50
From the text: Test target: 3rd-instar larvae of Hyphantria cunea, a sensitive strain reared indoors.
Experimental method: first, fresh and tender poplar leaves were selected, cut into small sections of 5 cm, and dipped in the prepared pesticide solution for 10 s in the order from low dosage to high dosage according to the experimental design. After natural air-drying in the shade, they were placed in a 9-cm-diameter Petri dish with filter paper, and uniform and healthy test insects were introduced, with 10 insects for each treatment and 3 replicates for each treatment. In addition, a blank control was set up.

Q: Which results are given for CN(C(=O)c1ccc2c(c1)OC(F)(F)O2)c1cccc(C(=O)Nc2c(Br)cc(C(F)(C(F)(F)F)C(F)(F)F)cc2OC(F)F)c1F [Compound I-72]?
A: LC50 [1]: 2.97 µg/mL; LC50 [2]: 1.02 µg/mL; LC50 [3]: 10.8 µg/mL; LC50 [4]: 1.24 µg/mL; mortality at 0.1 µg/mL [5]: 46.9%; LC50 [6]: 282 µg/mL; LC50 [7]: 0.805 µg/mL; LC50 [8]: 5.74 µg/mL
